In patent publication US20240366775A1, “HUMAN TRANSFERRIN RECEPTOR BINDING ANTIBODY-PEPTIDE CONJUGATE” (PEPTIDREAM INC., priority 2021, published 2024) one finds Kd data, which are given here for four molecules.

This experiment has as its target human transferrin receptor (hTfR) (Homo sapiens, UniProt P02786). Briefly: SPR measurement of peptide binding to hTfR. An excerpt: Note that ND indicates No Data (here, it means that no data was obtained).
Background: Surface plasmon resonance follows binding to a sensor surface in real time, without labels.

[1] abbreviates: measured on the naked peptide (1st to 15th amino acids, without linker) corresponding to the listed linker-attached peptide, read-out: KD value of binding to hTfR by SPR.

Like-named read-outs stand apart in the source and are kept apart here. Where a SMILES comes first, the peptide text is derived from it. Bridges are numbered along the chain shown (N, C = ends). [ ]: non-standard residue; d: D form. The star is where a group is joined. NMeY = CN[C@@H](Cc1ccc(O)cc1)C(=O)O; NMeF = CN[C@@H](Cc1ccccc1)C(=O)O; OSu = O=C1CCC(=O)N1O*; GABA = NCCCC(=O)O

Chain of human transferrin receptor (hTfR) (P02786 whole entry): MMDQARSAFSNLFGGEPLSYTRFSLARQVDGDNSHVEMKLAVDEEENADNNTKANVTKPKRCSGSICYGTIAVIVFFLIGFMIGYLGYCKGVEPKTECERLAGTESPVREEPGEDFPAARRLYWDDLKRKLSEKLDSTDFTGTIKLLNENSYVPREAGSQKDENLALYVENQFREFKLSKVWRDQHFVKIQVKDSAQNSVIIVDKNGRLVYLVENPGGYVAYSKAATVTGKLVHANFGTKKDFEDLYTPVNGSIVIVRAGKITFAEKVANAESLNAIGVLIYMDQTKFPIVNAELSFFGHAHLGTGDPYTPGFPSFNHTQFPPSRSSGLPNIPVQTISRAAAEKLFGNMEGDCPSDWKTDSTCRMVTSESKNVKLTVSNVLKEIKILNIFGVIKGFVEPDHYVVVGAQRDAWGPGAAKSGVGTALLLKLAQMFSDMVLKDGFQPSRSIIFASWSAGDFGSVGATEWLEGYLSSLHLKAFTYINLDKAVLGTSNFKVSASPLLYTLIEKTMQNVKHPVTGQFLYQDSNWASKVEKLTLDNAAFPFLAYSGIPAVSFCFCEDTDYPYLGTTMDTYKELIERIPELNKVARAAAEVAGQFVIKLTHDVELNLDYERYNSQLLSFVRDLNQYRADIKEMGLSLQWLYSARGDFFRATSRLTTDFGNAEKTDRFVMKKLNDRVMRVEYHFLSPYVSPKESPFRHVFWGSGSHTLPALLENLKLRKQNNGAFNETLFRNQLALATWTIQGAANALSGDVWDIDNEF

Broadly, the Kd is the equilibrium constant for the complex coming apart. As to `CC[C@H](C)[C@@H]1NC(=O)[C@H](Cc2ccc(O)cc2)NC(=O)[C@H](Cc2ccc(O)cc2)NC(=O)[C@H](CC(N)=O)NC(=O)[C@H](Cc2c[nH]c3ccccc23)N(C)C(=O)[C@H](C(C)C)NC(=O)[C@H](Cc2ccccc2)N(C)C(=O)[C@H](C(C)C)NC(=O)[C@H](C)NC(=O)CSC[C@@H](C(=O)NCC(=O)NCC(=O)N[C@@H](CO)C(=O)NCC(=O)N[C@@H](CCC(=O)O)C(=O)N[C@@H](CO)C(=O)N[C@@H](CCCCNC(=O)C2CCC(CN3C(=O)C=CC3=O)CC2)C(N)=O)NC(=O)[C@H](Cc2ccc(O)cc2)N(C)C(=O)[C@H](Cc2ccc(O)cc2)NC(=O)[C@H](CCCNC(=N)N)NC(=O)[C@H](CCCNC(=N)N)NC(=O)[C@H]([C@@H](C)CC)NC1=O` (stereo partly shown) [894_3m_5m_GGSGES_K(Mal)], the Kd under setting [1] is 1 to 100 nM.

For the molecule `CC[C@H](C)[C@@H]1NC(=O)[C@H](Cc2ccc(O)cc2)NC(=O)[C@H](Cc2ccc(O)cc2)NC(=O)[C@H](CC(N)=O)NC(=O)[C@H](Cc2c[nH]c3ccccc23)NC(=O)[C@H](C(C)C)NC(=O)[C@H](Cc2ccccc2)N(C)C(=O)[C@H](C(C)C)NC(=O)[C@H](C)NC(=O)CSC[C@@H](C(=O)NCC(=O)NCC(=O)NCC(=O)NCC(=O)N[C@@H](CO)C(=O)N[C@@H](CO)C(=O)N[C@@H](CCCCNC(=O)C2CCC(CN3C(=O)C=CC3=O)CC2)C(N)=O)NC(=O)[C@H](Cc2ccc(O)cc2)N(C)C(=O)[C@H](Cc2ccc(O)cc2)NC(=O)[C@H](CCCNC(=N)N)NC(=O)[C@H](CCCNC(=N)N)NC(=O)[C@H]([C@@H](C)CC)NC1=O` (stereo partly shown) [894_3m_G4S2_K(Mal)], the Kd was in the range of 1 to 100 nM. On to `CC[C@H](C)[C@@H]1NC(=O)[C@H](Cc2ccc(O)cc2)NC(=O)[C@H](Cc2ccc(O)cc2)NC(=O)[C@H](CC(N)=O)NC(=O)[C@H](Cc2c[nH]c3ccccc23)NC(=O)[C@H](C(C)C)NC(=O)[C@H](Cc2ccccc2)N(C)C(=O)[C@H](C(C)C)NC(=O)[C@H](C)NC(=O)CSC[C@@H](C(=O)NCC(=O)NCC(=O)N[C@@H](CCC(N)=O)C(=O)NCC(=O)N[C@@H](CCC(N)=O)C(=O)N[C@@H](CO)C(=O)NCC(=O)NCC(=O)N[C@@H](CCC(N)=O)C(=O)NCC(=O)N[C@@H](CCC(N)=O)C(=O)N[C@@H](CO)C(=O)NCCCC(=O)ON2C(=O)CCC2=O)NC(=O)[C@H](Cc2ccc(O)cc2)N(C)C(=O)[C@H](Cc2ccc(O)cc2)NC(=O)[C@H](CCCNC(=N)N)NC(=O)[C@H](CCCNC(=N)N)NC(=O)[C@H]([C@@H](C)CC)NC1=O` [894_3m_GGQGQSx2_gAbu(NHS)] ({CH2CO}-AV[NMeF]VWNYYIIRRY[NMeY]CGGQGQSGGQGQS[GABA]-OSu; thioether N-15), for which the Kd (naked peptide (1st to 15th amino acids, without linker part) corresponding to the listed linker-attached peptide, read-out: SPR of naked peptide (KD for binding to hTfR)) was in the range of 1 to 100 nM. Consider `CC[C@H](C)[C@@H]1NC(=O)[C@H](Cc2ccc(O)cc2)NC(=O)[C@H](Cc2ccc(O)cc2)NC(=O)[C@H](CC(N)=O)NC(=O)[C@H](Cc2c[nH]c3ccccc23)NC(=O)[C@H](C(C)C)NC(=O)[C@H](Cc2ccccc2)N(C)C(=O)[C@H](C(C)C)NC(=O)[C@H](C)NC(=O)CSC[C@@H](C(=O)NCC(=O)NCC(=O)N[C@@H](CCCNC(=N)N)C(=O)NCC(=O)N[C@@H](CCCNC(=N)N)C(=O)N[C@@H](CO)C(=O)N[C@@H](CCCCNC(=O)C2CCC(CN3C(=O)C=CC3=O)CC2)C(N)=O)NC(=O)[C@H](Cc2ccc(O)cc2)N(C)C(=O)[C@H](Cc2ccc(O)cc2)NC(=O)[C@H](CCCNC(=N)N)NC(=O)[C@H](CCCNC(=N)N)NC(=O)[C@H]([C@@H](C)CC)NC1=O` (stereo partly shown) [894_3m_GGRGRS_K(Mal)], for which the Kd under setting [1] lay in the range of 1 to 100 nM.
